# Toxic doses and inconclusive results are not listed.
# System: L1210 leukemia ip in BDF1 mice, survival T/C
# Assay: NCI In Vivo Anticancer Drug Screen. Data for tumor model L1210 Leukemia (intraperitoneal) in B6D2F1 (BDF1) mice
# Conditions: endpoint: mean survival time, higher = longer survival
# How it was run: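 Transplantable tumor model; survival measured in treated vs vehicle control mice. Value = treated/control.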
# [1] = dose: 100.0 mg/kg/injection, schedule: Q04DX003 (ip), vehicle: saline with Tween-80
# [2] = dose: 200.0 mg/kg/injection, schedule: Q04DX003 (ip), vehicle: saline with Tween-80
# [3] = dose: 400.0 mg/kg/injection, schedule: Q04DX003 (ip), vehicle: saline with Tween-80
# [4] = dose: 100.0 mg/kg/injection, schedule: Q01DX009 (ip), vehicle: Klucel (hydroxypropylcellulose) (HPC)
# [5] = dose: 200.0 mg/kg/injection, schedule: Q01DX009 (ip), vehicle: Klucel (hydroxypropylcellulose) (HPC)
# [6] = dose: 100.0 mg/kg/injection, schedule: Q04DX003 (ip), vehicle: saline
# [7] = dose: 200.0 mg/kg/injection, schedule: Q04DX003 (ip), vehicle: saline
# [8] = dose: 100.0 mg/kg/injection, schedule: Q01DX001 (ip), vehicle: Klucel (hydroxypropylcellulose) (HPC)
# [9] = dose: 200.0 mg/kg/injection, schedule: Q01DX001 (ip), vehicle: Klucel (hydroxypropylcellulose) (HPC)
smiles,measurement,setting,value
CC(=O)c1cccc([N+](=O)[O-])c1,T/C,"dose: 100.0 mg/kg/injection, schedule: Q01DX009 (ip), vehicle: other",91 % of control
same,T/C,"dose: 100.0 mg/kg/injection, schedule: Q04DX003 (ip), vehicle: other",102 % of control
same,T/C,[1],105 % of control
same,T/C,"dose: 200.0 mg/kg/injection, schedule: Q01DX009 (ip), vehicle: other",105 % of control
same,T/C,"dose: 200.0 mg/kg/injection, schedule: Q04DX003 (ip), vehicle: other",100 % of control
same,T/C,[2],106 % of control
same,T/C,"dose: 400.0 mg/kg/injection, schedule: Q04DX003 (ip), vehicle: other",94 % of control
same,T/C,[3],108 % of control
CC[CH2][Sn]([CH2]CC)([CH2]CC)[O]C(=O)C(Cl)(Cl)Cl,T/C,"dose: 0.39 mg/kg/injection, schedule: Q01DX009 (ip), vehicle: saline with Tween-80",87 % of control
same,T/C,"dose: 0.78 mg/kg/injection, schedule: Q01DX009 (ip), vehicle: saline with Tween-80",98 % of control
same,T/C,"dose: 1.56 mg/kg/injection, schedule: Q01DX009 (ip), vehicle: saline with Tween-80",91 % of control
CCCCNC(=O)c1ccc(C(=O)c2ccc(C(=O)NCCCC)c(C(=O)O)c2)cc1C(=O)O,T/C,"dose: 100.0 mg/kg/injection, schedule: Q04DX002 (ip), vehicle: Klucel (hydroxypropylcellulose) (HPC)",90 % of control
same,T/C,"dose: 200.0 mg/kg/injection, schedule: Q04DX002 (ip), vehicle: Klucel (hydroxypropylcellulose) (HPC)",87 % of control
same,T/C,"dose: 400.0 mg/kg/injection, schedule: Q04DX002 (ip), vehicle: Klucel (hydroxypropylcellulose) (HPC)",87 % of control
O=C1c2cscc2C(O)(c2ccccc2)c2c(Cl)sc(Cl)c21 (stereo not drawn),T/C,"dose: 100.0 mg/kg/injection, schedule: Q01DX001 (ip), vehicle: saline with Tween-80",88 % of control
same,T/C,"dose: 200.0 mg/kg/injection, schedule: Q01DX001 (ip), vehicle: saline with Tween-80",88 % of control
same,T/C,"dose: 400.0 mg/kg/injection, schedule: Q01DX001 (ip), vehicle: saline with Tween-80",88 % of control
N#CSc1ccc(NN)cc1,T/C,"dose: 3.0 mg/kg/injection, schedule: Q01DX009 (ip), vehicle: saline with Tween-80",97 % of control
same,T/C,"dose: 6.0 mg/kg/injection, schedule: Q01DX009 (ip), vehicle: saline with Tween-80",90 % of control
same,T/C,"dose: 6.0 mg/kg/injection, schedule: Q04DX004 (ip), vehicle: saline with Tween-80",100 % of control
same,T/C,"dose: 12.0 mg/kg/injection, schedule: Q01DX009 (ip), vehicle: saline with Tween-80",95 % of control
same,T/C,"dose: 12.0 mg/kg/injection, schedule: Q04DX004 (ip), vehicle: saline with Tween-80",98 % of control
same,T/C,"dose: 25.0 mg/kg/injection, schedule: Q01DX009 (ip), vehicle: saline with Tween-80",96 % of control
same,T/C,"dose: 25.0 mg/kg/injection, schedule: Q04DX003 (ip), vehicle: saline with Tween-80",93 % of control
same,T/C,"dose: 25.0 mg/kg/injection, schedule: Q04DX004 (ip), vehicle: saline with Tween-80",102 % of control
CON(C)c1nc(Cl)nc(N(C)OC)n1,T/C,"dose: 100.0 mg/kg/injection, schedule: Q01DX001 (ip), vehicle: carboxymethylcellulose (CMC)",96 % of control
same,T/C,[4],97 % of control
same,T/C,"dose: 200.0 mg/kg/injection, schedule: Q01DX001 (ip), vehicle: carboxymethylcellulose (CMC)",94 % of control
same,T/C,[5],105 % of control
same,T/C,"dose: 400.0 mg/kg/injection, schedule: Q01DX001 (ip), vehicle: carboxymethylcellulose (CMC)",107 % of control
same,T/C,"dose: 400.0 mg/kg/injection, schedule: Q01DX009 (ip), vehicle: Klucel (hydroxypropylcellulose) (HPC)",105 % of control
NCC(=O)OC(c1ccccc1)(c1ccccc1)c1ccccc1,T/C,[4],96 % of control
same,T/C,"dose: 100.0 mg/kg/injection, schedule: Q04DX003 (ip), vehicle: Klucel (hydroxypropylcellulose) (HPC)",98 % of control
same,T/C,[5],96 % of control
same,T/C,"dose: 200.0 mg/kg/injection, schedule: Q04DX003 (ip), vehicle: Klucel (hydroxypropylcellulose) (HPC)",88 % of control
same,T/C,"dose: 400.0 mg/kg/injection, schedule: Q04DX003 (ip), vehicle: Klucel (hydroxypropylcellulose) (HPC)",89 % of control
CC[As](=O)(O)CC,T/C,"dose: 50.0 mg/kg/injection, schedule: Q01DX009 (ip), vehicle: saline",97 % of control
same,T/C,"dose: 100.0 mg/kg/injection, schedule: Q01DX009 (ip), vehicle: saline",120 % of control
same,T/C,[6],101 % of control
same,T/C,"dose: 200.0 mg/kg/injection, schedule: Q01DX009 (ip), vehicle: saline",105 % of control
same,T/C,[7],107 % of control
Cc1ccc(N=Cc2cc([N+](=O)[O-])ccc2O)cc1,T/C,"dose: 87.5 mg/kg/injection, schedule: Q04DX003 (ip), vehicle: Klucel (hydroxypropylcellulose) (HPC)",102 % of control
same,T/C,"dose: 175.0 mg/kg/injection, schedule: Q04DX003 (ip), vehicle: Klucel (hydroxypropylcellulose) (HPC)",92 % of control
same,T/C,"dose: 350.0 mg/kg/injection, schedule: Q04DX003 (ip), vehicle: Klucel (hydroxypropylcellulose) (HPC)",97 % of control
C1CCNNC1,T/C,"dose: 100.0 mg/kg/injection, schedule: Q01DX001 (ip), vehicle: saline",104 % of control
same,T/C,[6],114 % of control
same,T/C,"dose: 200.0 mg/kg/injection, schedule: Q01DX001 (ip), vehicle: saline",98 % of control
same,T/C,[7],94 % of control
same,T/C,"dose: 400.0 mg/kg/injection, schedule: Q01DX001 (ip), vehicle: saline",95 % of control
same,T/C,"dose: 400.0 mg/kg/injection, schedule: Q04DX003 (ip), vehicle: saline",89 % of control
CCN=C(c1ccc(NC(=O)c2ccc(C(=O)Nc3ccc(C(=NCC)N(CC)C(=O)C(F)(F)C(F)(F)C(F)(F)F)cc3)cc2)cc1)N(CC)C(=O)C(F)(F)C(F)(F)C(F)(F)F,T/C,"dose: 1.5 mg/kg/injection, schedule: Q01DX015 (ip), vehicle: methylcellulose (MC)",96 % of control
same,T/C,"dose: 3.0 mg/kg/injection, schedule: Q01DX015 (ip), vehicle: methylcellulose (MC)",113 % of control
same,T/C,"dose: 7.5 mg/kg/injection, schedule: Q01DX015 (ip), vehicle: methylcellulose (MC)",153 % of control
same,T/C,"dose: 12.0 mg/kg/injection, schedule: Q01DX015 (ip), vehicle: methylcellulose (MC)",124 % of control
Cc1cc(C)n(/N=C/c2ccccn2)c(=O)c1C#N,T/C,"dose: 75.0 mg/kg/injection, schedule: Q04DX003 (ip), vehicle: Klucel (hydroxypropylcellulose) (HPC)",94 % of control
same,T/C,[8],97 % of control
same,T/C,"dose: 150.0 mg/kg/injection, schedule: Q04DX003 (ip), vehicle: Klucel (hydroxypropylcellulose) (HPC)",97 % of control
same,T/C,[9],97 % of control
same,T/C,"dose: 300.0 mg/kg/injection, schedule: Q04DX003 (ip), vehicle: Klucel (hydroxypropylcellulose) (HPC)",100 % of control
same,T/C,"dose: 400.0 mg/kg/injection, schedule: Q01DX001 (ip), vehicle: Klucel (hydroxypropylcellulose) (HPC)",102 % of control
COCCNC(=O)Nc1cccc2c1CCCC2,T/C,"dose: 100.0 mg/kg/injection, schedule: Q01DX009 (ip), vehicle: saline with Tween-80",97 % of control
same,T/C,"dose: 200.0 mg/kg/injection, schedule: Q01DX009 (ip), vehicle: saline with Tween-80",99 % of control
same,T/C,"dose: 400.0 mg/kg/injection, schedule: Q01DX009 (ip), vehicle: saline with Tween-80",103 % of control
CCCCNC(=O)c1cc(NC(=O)c2ccc(C(=O)Nc3cc(C(=O)NCCCC)cc(C4N=CCN4)c3)cc2)cc(C2=NCCN2)c1 (stereo not drawn),T/C,"dose: 5.0 mg/kg/injection, schedule: Q01DX015 (ip), vehicle: methylcellulose (MC)",86 % of control
same,T/C,"dose: 20.0 mg/kg/injection, schedule: Q01DX015 (ip), vehicle: methylcellulose (MC)",86 % of control
same,T/C,"dose: 40.0 mg/kg/injection, schedule: Q01DX015 (ip), vehicle: methylcellulose (MC)",91 % of control
same,T/C,"dose: 62.0 mg/kg/injection, schedule: Q01DX015 (ip), vehicle: methylcellulose (MC)",100 % of control
O=S(c1ccc(Cl)cc1)N(OCc1ccccc1)S(=O)c1ccc(Cl)cc1 (stereo not drawn),T/C,"dose: 50.0 mg/kg/injection, schedule: Q01DX001 (ip), vehicle: Klucel (hydroxypropylcellulose) (HPC)",107 % of control
same,T/C,[8],100 % of control
same,T/C,[9],100 % of control
CN(C)c1ccc(NC(=O)/C=C/C(=O)O)cc1,T/C,[1],108 % of control
same,T/C,[2],101 % of control
same,T/C,[3],101 % of control
